System: C57Bl/6J wild-type mice with rmTBI
Experiment: Morris Water Maze assessment for spatial memory in rmTBI mice, intranasal zinc vs vehicle
Assay type: in vivo
Procedure: Subjects were C57Bl/6J wild-type mice that were 6 weeks of age at the time of the first stressor. All mice received rmTBI delivered using a system 100/200.
For 7 days, stress groups were subject to a rotation of varied stressors, including: • 1. Deprivation of food, water, and enrichment for 8 hours. • 2. Exposure to soiled rat bedding in home cage. • 3. Exposure to bobcat urine in home cage. • 4. Forced swim in ice bath for 5 minutes. • 5. Home cage flooded with water. • 6. Home cage placed on orbital shaker for 5 minutes. • 7. Loud static noise for 1 hour. • 8. Restraint in conical Falcon tube for 1 hour.
A second week of varied stressors was administered concurrently with rmTBI. The rmTBI closed-head injury was induced by Leica One Controlled Cortical Impact device with falling platform as in system 100, causing the mouse to rotate upon impact. Anesthetized mice received one mTBI every 48 hours over the course of 7 days for a total of 4 injuries. Immediately following injury, mice were intranasally administered either zinc treatment or vehicle control (water).
Changes in behavior were also analyzed, using the Morris Water Maze assessment for spatial memory over 7 days. In this measure of learning and memory, the mouse is tested for the ability to locate a platform in a pool of water using visual cues. Days 1-6 had 3 trials, and days 2, 4 and 6 used a hidden platform for trial 3. Day 7 comprised a 24-hr probe trial.

Substance: zinc
- time spent in the quadrant of the maze where the platform was present (Morris water maze) (day 6, non-stressed mice only, trending stress x zinc interaction F(1,39)=4.002, p=0.052, zinc intranasally after injury vs vehicle, FIG. 11): beneficial effect
- number of platform crossings (Morris water maze) (effect only for stressed mice, stress x zinc interaction F(1,39)=4.207, p=0.047, zinc intranasally after injury vs vehicle, FIG. 10): significantly increased
- latency in locating the maze platform (Morris water maze) (stressed and non-stressed, zinc intranasally immediately after each injury vs vehicle control (water), F(1,39)=2.184, p=0.147, FIG. 9): did not differ

— patent US11963848B2, “Impactor platform allowing freefall upon impact” (George Mason University, priority 2019, dated 2024)
